Patent US4183940A, “Antimycotic imidazolyl-9,10-dihydro-anthracene derivatives” (Bayer Aktiengesellschaft, priority 1976, dated 1980)
Values after ≈ are worked out from the molar mass of the structure shown.

Tests used:
[1] = system: Candida albicans; test: Antimycotic in vitro activity (series dilution test), Candida albicans; type: cell-based; details: meat extract/glucose broth, 28° C., 24 to 96 hours; for MIC: Candida albicans, read-out: MIC values in γ/ml of nutrient medium for Candida albicans
Method: (§1) The invitro tests were carried out in a series dilution test with germ inocula of an average of 5×10^4 germs/ml of substrate. The nutrient medium was (a) for dermatophytes and moulds: Sabouraud's milieu d 'epreuve and (b) for yeasts: meat extract/glucose broth. The incubation temperature was 28° C. and the duration of incubation was 24 to 96 hours.

[2] = system: Microsporon felineum; test: Antimycotic in vitro activity (series dilution test), Microsporon felineum; type: cell-based; details: Sabouraud's milieu d'epreuve, 28° C., 24 to 96 hours; for MIC: read-out: MIC values in γ/ml of nutrient medium for Microsporon felineum
Method: as §1

[3] = system: Trichophyton mentagrophytes; test: Antimycotic in vitro activity (series dilution test), Trichophyton mentagrophytes; type: cell-based; details: Sabouraud's milieu d'epreuve, 28° C., 24 to 96 hours; for MIC: Trichophyton mentagrophytes, read-out: MIC values in γ/ml of nutrient medium for Trichophyton mentagrophytes
Method: as §1

[4] = system: Aspergillus species; test: Antimycotic in vitro activity (series dilution test), Aspergillus species; type: cell-based; details: Sabouraud's milieu d'epreuve, 28° C., 24 to 96 hours; for MIC: Aspergillus, read-out: MIC values in γ/ml of nutrient medium for Aspergillus species
Method: as §1

[5] = system: Penicillium commune; test: Antimycotic in vitro activity (series dilution test), Penicillium commune; type: cell-based; details: Sabouraud's milieu d'epreuve, 28° C., 24 to 96 hours; for MIC: Penicillium commune, read-out: MIC values in γ/ml of nutrient medium for Penicillium commune
Method: as §1

[6] = system: Candida; test: Antimycotic in vivo activity (oral) in candidosis of mice; set-up: key: +++++: very good action=≥90% of survivors on the 6th day after infection; ++++: good action=≥80% of survivors on the 6th day after infection; +++: action=≥60% of survivors on the 6th day after infection; ++: poor action=≥40% of survivors on the 6th day after infection; +: trace of action; n.a.: no action; details: mice SPF-CF1, i.v. infection with Candida, 100 mg/kg oral one hour before and seven hours after infection
Method: Mice of the type SPF-CF1 were infected intravenously with 1-2×10^6 logarithmically growing Candida cells, which were suspended in physiological sodium chloride solution. The animals were treated orally one hour before and seven hours after the infection with, in each case, 100 mg/kg of body weight of the formulations.
Untreated animals died from the infection 2 to 6 days after infection. The survival rate on the 6th day after infection was about 5% in the case of the untreated control animals.

SMILES | MIC values in γ/ml of nutrient medium for Candida albicans [1] | MIC values in γ/ml of nutrient medium for Microsporon felineum [2] | MIC [3] | MIC values in γ/ml of nutrient medium for Aspergillus species [4] | MIC [5] | MIC values in γ/ml of nutrient medium for Trichophyton mentagrophytes [3] | MIC values in γ/ml of nutrient medium for Penicillium commune [5] | MIC [1] | MIC [2] | MIC [4] | Action (survivors on the 6th day after infection) [6]
O=C1c2ccccc2C(c2ccccc2)(n2ccnc2)c2ccccc21 [drawing 18] | 4 µg/mL | 8 µg/mL | < 1 µg/mL | 4 µg/mL | 4 µg/mL (≈ 11.9 µM) | – | – | – | – | – | –
O=C1c2ccccc2C(c2ccccc2)(n2ccnc2)c2ccccc21 [drawing 19] | 8 µg/mL | < 1 µg/mL | – | 32 µg/mL | – | < 1 µg/mL | 8 µg/mL | – | – | – | –
O=C1c2ccccc2C(c2ccccc2)(n2ccnc2)c2ccccc21 [drawing 20] | > 64 µg/mL | 4 µg/mL | – | 64 µg/mL | – | < 1 µg/mL | 8 µg/mL | – | – | – | –
O=C1c2ccccc2C(c2ccccc2)(n2ccnc2)c2ccccc21 [drawing 21] | > 64 µg/mL | 4 µg/mL | – | 32 µg/mL | – | < 1 µg/mL | 8 µg/mL | – | – | – | –
Cc1ccccc1C1(n2ccnc2)c2ccccc2C(=O)c2ccccc21 [drawing 22] | – | – | < 1 µg/mL | – | – | – | > 64 µg/mL | > 64 µg/mL | < 1 µg/mL | > 64 µg/mL | –
Cc1ccccc1C1(n2ccnc2)c2ccccc2C(=O)c2ccccc21 [drawing 23] | 32 µg/mL | 1 µg/mL | – | > 64 µg/mL | – | < 1 µg/mL | 4 µg/mL | – | – | – | –
Cc1ccc(C2(n3ccnc3)c3ccccc3C(=O)c3ccccc32)cc1 [drawing 24] | – | – | < 1 µg/mL | – | – | – | 64 µg/mL | 64 µg/mL (≈ 183 µM) | 8 µg/mL (≈ 22.8 µM) | > 64 µg/mL | –
Cc1ccc(C2(n3ccnc3)c3ccccc3C(=O)c3ccccc32)cc1 [drawing 25] | > 64 µg/mL | 4 µg/mL | – | > 64 µg/mL | – | < 1 µg/mL | 8 µg/mL | – | – | – | –
c1ccc(C2(n3ccnc3)c3ccccc3C(c3ccccc3)(n3ccnc3)c3ccccc32)cc1 (stereo not drawn) [drawing 26] | – | – | 32 µg/mL (≈ 68.9 µM) | – | > 64 µg/mL | – | – | 4 µg/mL (≈ 8.61 µM) | – | – | –
O=C1c2ccccc2C(c2ccccc2)(n2ccnc2)c2ccccc21 [drawing 31] | – | – | – | – | – | – | – | – | – | – | +++ (action=≥60% of survivors on the 6th day after infection)
c1ccc(C2(n3ccnc3)c3ccccc3C(c3ccccc3)(n3ccnc3)c3ccccc32)cc1 (stereo not drawn) [drawing 32] | – | – | – | – | – | – | – | – | – | – | ++ (poor action=≥40% of survivors on the 6th day after infection)
Cc1ccccc1C1(n2ccnc2)c2ccccc2C(=O)c2ccccc21 [drawing 35] | – | – | – | – | – | – | – | – | – | – | +
c1ccc(C2(n3ccnc3)c3ccccc3Oc3ccccc32)cc1 [reference compound] | – | – | > 100 µg/mL | – | 100 µg/mL (≈ 308 µM) | – | – | 20 µg/mL (≈ 61.7 µM) | > 100 µg/mL | – | –
c1ccc(C2(n3ccnc3)c3ccccc3Sc3ccccc32)cc1 [reference compound] | – | – | > 100 µg/mL | – | > 100 µg/mL | – | – | 40 µg/mL (≈ 117 µM) | > 100 µg/mL | – | –
CSc1ccc(C2(n3ccnc3)c3ccccc3-c3ccccc32)cc1 [reference compound] | – | – | < 4 µg/mL | – | > 100 µg/mL | – | – | 100 µg/mL (≈ 282 µM) | 20 µg/mL (≈ 56.4 µM) | > 100 µg/mL | –
CSc1ccc(C2(n3ccnc3)c3ccccc3CCc3ccccc32)cc1 [reference compound] | – | – | 10 µg/mL (≈ 26.1 µM) | – | > 100 µg/mL | – | – | – | 40 µg/mL (≈ 105 µM) | > 100 µg/mL | –
